The record followed here is ChEMBL document CHEMBL3045776, “[1,2,4]Triazolo[4,3-a]quinoxaline: synthesis, antiviral, and antimicrobial activities” (Med Chem Res, 2012).

Data set [1] in a line: Cytotoxicity against Chlorocebus aethiops (African green monkey) Vero cells. It counts as cell-based. The note with it: chlorocebus sabaeus, read-out: CD50 (the source's name).
For data set [2], the system named is Human alphaherpesvirus 1. The data set can be described thus: Antiviral activity against Human herpesvirus 1 infected African green monkey Vero cells assessed as reduction of virus induced plaque formation at […] after 66 hr. It counts as functional. Set-up: scale not given: the % may be the effect or the level left.
Data set [3] deals with Human alphaherpesvirus 1. The data set can be described thus: Antiviral activity against Human herpesvirus 1 infected African green monkey Vero cells assessed as reduction of virus induced plaque formation after 66 hr. The data set is classed as functional. The note with it: Human alphaherpesvirus 1, 66 h.
The subject of data set [4] is Staphylococcus aureus. Description: Antibacterial activity against Staphylococcus aureus after 24 hr by agar dilution method. It counts as functional.
Data set [5] relates to Candida albicans. Description: Antifungal activity against Candida albicans at 500 ug/disk after 72 hr by disk diffusion method. The note with it: read-out: IZ. It counts as functional.
Data set [6] deals with Staphylococcus aureus. Description: Antibacterial activity against Staphylococcus aureus at 500 ug/disk after 24 hr by disk diffusion method. The note with it: read-out: IZ. It counts as functional.
Data set [7] concerns Escherichia coli. The data set can be described thus: Antibacterial activity against Escherichia coli at 500 ug/disk after 24 hr by disk diffusion method. It counts as functional. The note with it: read-out: IZ. On the technique in general: Agar diffusion results depend on both activity and mobility in agar.
The test system of data set [8] is Bacillus subtilis. Description: Antibacterial activity against Bacillus subtilis at 500 ug/disk after 24 hr by disk diffusion method. The settings on record: read-out: IZ. It counts as functional.
In data set [9] the test system is Escherichia coli. Description: Antibacterial activity against Escherichia coli after 24 hr by agar dilution method. It counts as functional.
The test system of data set [10] is Candida albicans. The data set can be described thus: Antifungal activity against Candida albicans after 48 hr by agar dilution method. It counts as functional. (In general: Agar dilution tests growth on a series of plates holding different concentrations.)
Data set [11] relates to Bacillus subtilis. The data set can be described thus: Antibacterial activity against Bacillus subtilis after 24 hr by agar dilution method. It counts as functional.
Data set [12] concerns Escherichia coli. The data set can be described thus: Antibacterial activity against Escherichia coli at 50 ug/ml after 24 hr by disk diffusion method. The settings on record: read-out: IZ.
Data set [13] deals with Bacillus subtilis. Description: Antibacterial activity against Bacillus subtilis at 50 ug/ml after 24 hr by disk diffusion method. The settings on record: read-out: IZ.
For data set [14], the system named is Staphylococcus aureus. Description: Antibacterial activity against Staphylococcus aureus at 50 ug/ml after 24 hr by disk diffusion method. The note with it: read-out: IZ.
In data set [15] the test system is Candida albicans. Description: Antifungal activity against Candida albicans at 1000 ug/ml after 72 hr by disk diffusion method. It counts as functional. The settings on record: read-out: IZ.

In brackets after ≈: the same amount, converted by molar mass. A value given as a limit tells only on which side of the number the result lay.

In the case of `CC(=O)Nc1nnc2c(N3CCN(c4ccccc4C)CC3)nc3ccc(C)cc3n12`, the CC50 in [1] was greater than 200 µg/mL.
On to `Cc1ccc2nc(N3CCN(c4ccccc4C)CC3)c3nnc(NC(=O)c4ccccc4)n3c2c1`, for which the Activity in data set [2] is reported as less than 25%. Moreover, the CC50 in data set [1] is 160 µg/mL (≈ 335 µM). In [3], the MIC is 80 µg/mL (≈ 168 µM).
For the molecule `Cc1ccc2nc(N3CCCCC3)c3nnc(NC(=O)c4ccccc4)n3c2c1`, the values for the MIC in [4] and in data set [3] were 84 µg/mL (≈ 217 µM) and 80 µg/mL (≈ 207 µM), respectively. Besides, the zone of inhibition at 500 µg/disc in data set [5] amounted to 10 mm; in [6] it was 20 mm; in [7] it was 10 mm. Further, in [2], the Activity is on record as less than 25%. Besides, in data set [1], the CC50 is 160 µg/mL (≈ 414 µM).
Take `CC(=O)c1ccc(Nc2nc3ccc(C)cc3n3c(NC(=O)c4ccccc4)nnc23)cc1`: the MIC was found to be 94 µg/mL (≈ 215 µM) in [4] and 67 µg/mL (≈ 154 µM) in [9]. For the same molecule, the figures for the zone of inhibition at 500 µg/disc in [8], in data set [6] and in data set [7] were 10 mm, 15 mm and 15 mm, respectively.
Take `Cc1ccc2nc(Sc3nnc(-c4ccccc4O)o3)c3nnc(N)n3c2c1`: the Activity in data set [2] was less than 25%. For the same molecule, the CC50 in [1] came out at 160 µg/mL (≈ 409 µM). The MIC in [3] came to 80 µg/mL (≈ 204 µM).
Regarding `Cc1ccc2nc(Sc3nnc(-c4cccnc4)o3)c3nnc(N)n3c2c1`, the Activity in [2] is listed as less than 25%. Besides, the CC50 in data set [1] amounted to 160 µg/mL (≈ 425 µM). In addition, the zone of inhibition at 500 µg/disc in data set [7] turned out to be 10 mm. In addition, the MIC in [3] turned out to be 80 µg/mL (≈ 213 µM).
Regarding `Cc1ccc2nc(Sc3nnc(-c4cccs4)n3-c3ccccc3)c3nnc(N)n3c2c1`, the MIC in data set [10] amounted to 78 µg/mL (≈ 171 µM); in [4], 124 µg/mL (≈ 272 µM); in [9] it was 98 µg/mL (≈ 215 µM); in [11] it was 91 µg/mL (≈ 199 µM); in [3] it was 80 µg/mL (≈ 175 µM). In addition, the zone of inhibition at 500 µg/disc in data set [8] was 15 mm; in data set [5], 20 mm; in data set [6] it was 15 mm; in data set [7], 20 mm. In addition, the Activity in data set [2] is reported as less than 25%. Further, in data set [1], the CC50 was found to be 160 µg/mL (≈ 350 µM).
Consider `COc1ccc(/C=N/c2n[nH]c(Sc3nc4ccc(C)cc4n4c(N)nnc34)n2)cc1OC`, for which the MIC came out at 112 µg/mL (≈ 243 µM) in data set [10] and 102 µg/mL (≈ 221 µM) in [9]. The zone of inhibition at 500 µg/disc worked out at 10 mm in data set [8], 20 mm in data set [5], 10 mm in data set [6] and 15 mm in [7].
For the molecule `CCNC(=S)Nc1nnc2c(Cl)nc3ccc(C)cc3n12`, the MIC in [10] stood at 89 µg/mL (≈ 277 µM); in [4], 115 µg/mL (≈ 358 µM); in data set [9], 87 µg/mL (≈ 271 µM); in [3] it was 80 µg/mL (≈ 249 µM). The zone of inhibition at 500 µg/disc in data set [8] turned out to be 10 mm; in data set [5] it was 20 mm; in [6], 15 mm; in [7], 15 mm. Also, in data set [2], the Activity is reported as less than 25%. Moreover, the CC50 in data set [1] stood at 160 µg/mL (≈ 499 µM).
Regarding `Cc1ccc2nc(Cl)c3nnc(NC(=S)Nc4ccccc4)n3c2c1`, in data set [2], the Activity is 25%. Besides, in data set [1], the CC50 stood at 200 µg/mL (≈ 542 µM). Besides, the MIC in data set [3] was 20 µg/mL (≈ 54.2 µM).
For the molecule `Cc1ccc2nc(Cl)c3nnc(/N=C/c4ccc(O)cc4)n3c2c1`, the Activity in data set [2] is less than 25%. For the same molecule, the CC50 in [1] was determined as 160 µg/mL (≈ 474 µM). Besides, the MIC in [3] came to 80 µg/mL (≈ 237 µM).
On the same counts, the results for `COc1ccc(/C=N/c2nnc3c(Cl)nc4ccc(C)cc4n23)cc1OC` are less than 25%, 160 µg/mL (≈ 419 µM) and 80 µg/mL (≈ 210 µM).
On the same counts, the results for `COC(=O)c1cc(=O)n2nc3c(Cl)nc4ccc(C)cc4n3c2n1` are less than 25%, 160 µg/mL (≈ 465 µM) and 80 µg/mL (≈ 233 µM).
Consider `CCOC(=O)c1cnc2n(nc3c(Cl)nc4ccc(C)cc4n32)c1=O`, for which, in data set [6], the zone of inhibition at 500 µg/disc amounted to 10 mm.
On to `Cc1ccc2nc(N3CCN(c4ccccc4C)CC3)c3nnc(N)n3c2c1`, for which the zone of inhibition at 500 µg/disc in data set [8], in data set [5] and in data set [7] was 10 mm in each case. In [9], this molecule came in with an MIC of 85 µg/mL (≈ 228 µM).
For `C[C@@]1(CO)[C@H](O)CC[C@@]2(C)[C@H]1CC[C@H]1C[C@@H]3C[C@@]12CC[C@]3(O)CO` [APHIDICOLIN], in data set [2], the Activity amounted to 100%. In data set [1], the CC50 turned out to be 20 µg/mL (≈ 59.1 µM). For the same molecule, the MIC in data set [3] was found to be 5 µg/mL (≈ 14.8 µM).
Turning to `O=C(O)c1cn(C2CC2)c2cc(N3CCNCC3)c(F)cc2c1=O` [CIPROFLOXACIN], the MIC in [4] came to 76 µg/mL (≈ 229 µM); in data set [9], 57 µg/mL (≈ 172 µM); in data set [11] it was 62 µg/mL (≈ 187 µM). The zone of inhibition at 50 µg/mL in data set [12] is greater than 20 mm; in data set [13], 15 mm; in data set [14] it was greater than 20 mm.
Molecule `Clc1ccccc1C(c1ccccc1)(c1ccccc1)n1ccnc1` [CLOTRIMAZOLE] had an MIC in [10] of 48 µg/mL (≈ 139 µM). The zone of inhibition at 1000 µg/mL in [15] is greater than 20 mm.
